Results taken from patent US12662485B2, “Substituted pyrazolo[4,3-D]pyrimidines as gut-targeted phosphodiesterase inhibitors” (priority 2020, dated 2026).

What was measured:
[1] = mouse, in vivo
[2] = system: colon epithelium; experiment: Epithelial proliferation in the colon by flow cytometry using Ki67; format: in vivo; conditions: mice, drug in drinking water 8 days; control 21%
Experimental: Toxicity studies and histology. […] The body weight was measured daily. After 8 days the animals were sacrificed and the epithelial proliferation in the colon was measured by flow cytometry using Ki67. Box plots show median and whiskers are min and max values. The p values were generated using a one-way ANOVA with Dunnett's multiple comparisons test. For FIGS. 5A and 5C, n=5.

[3] = target: T1, PDE5 (Homo sapiens, UniProt O76074); experiment: Reporter cell assay: LS-174T cells expressing PKG2 and PDE5, low-dose linaclotide, phospho-VASP Western blot; format: cell-based; conditions: LS-174T reporter cells
T1 construct: host or cells: LS-174T colon cancer reporter cell line
Description: Results shown are representative of at least 3 independent experiments.
Western blot and reporter cell lines. […] Results shown are representative of at least 3 independent experiments.

CCCc1nn(C)c2c(=O)[nH]c(-c3cc(S(=O)(=O)N4CCNCC4)ccc3OCC)nc12 [desmethyl-sildenafil, reference compound]
entry from the gut into plasma, dose curve [1]: increased dramatically in the plasma

CCCc1nn(C)c2c(=O)[nH]c(-c3cc(S(=O)(=O)N4CCN(C)CC4)ccc3OCC)nc12 [sildenafil, reference compound]
total Ki67 positive cells in colon epithelium [2]: 15%

acetyl-sildenafil
potency of PDE5 inhibitor activity relative to sildenafil (VASP phosphorylation) [3]: equally potent as the parent compound
